Test results reported in ChEMBL document CHEMBL1139332, “Selective activity against Mycobacteriumtuberculosis of new quinoxaline 1,4-di-N-oxides” (Bioorg Med Chem, 2009).
≈ marks a conversion by molar mass, not a printed value.

Experiments:
Vero = test: Cytotoxicity against african green monkey Vero cells after 72 hrs by MTT assay; format: cell-based, Chlorocebus sabaeus
[1] = tested on: Mycobacterium tuberculosis; test: Antimicrobial activity against Mycobacterium tuberculosis H37Rv by microplate alamar blue assay; format: functional
[2] = Selectivity index, ratio of IC50 for african green monkey Vero cells to MIC for Mycobacterium tuberculosis H37Rv; format: functional
[3] = tested on: Mycobacterium tuberculosis; test: Antimicrobial activity against Mycobacterium tuberculosis H37Rv at 6.25 ug/ml by microplate alamar blue assay; format: functional
[4] = Chlorocebus sabaeus, Vero, 72 h, read-out: IC50

Row | SMILES | IC50 (Vero; [4]) | MIC [1] | Ratio [2] | inhibition at 6.25 µg/mL [3] | IC50 (Vero; vero)
1 | Cc1cc2c(cc1C)[n+]([O-])c(-c1ccc(F)cc1)c(C#N)[n+]2[O-] | 100 µg/mL (≈ 323 µM) | 1.69 µg/mL (≈ 5.46 µM) | >59.07 | 90% | 
2 | N#Cc1c(-c2ccc(OC(F)(F)F)cc2)[n+]([O-])c2ccc(F)cc2[n+]1[O-] |  | < 0.2 µg/mL |  | 90% | 
3 | COC(=O)c1ccc(-c2c(C#N)[n+]([O-])c3cc(F)ccc3[n+]2[O-])cc1 | 57.5 µg/mL (≈ 169 µM) | < 0.2 µg/mL | >258.67 | 90% | 
4 | COc1ccc2c(c1)[n+]([O-])c(C#N)c(-c1ccc(F)cc1)[n+]2[O-] | 95.1 µg/mL (≈ 306 µM) | < 0.2 µg/mL | >475.55 | 90% | 
5 | N#Cc1c(-c2ccc(Cl)cc2)[n+]([O-])c2ccccc2[n+]1[O-] | 0.36 µg/mL (≈ 1.21 µM) | 0.39 µg/mL (≈ 1.31 µM) | 0.92 | 90% | 
6 | CCOC(=O)c1c(-c2ccccc2)[n+]([O-])c2cc(Cl)c(Cl)cc2[n+]1[O-] |  | < 0.2 µg/mL |  | 90% | 
7 | Cc1ccc2c(c1)[n+]([O-])c(C#N)c(-c1ccccc1)[n+]2[O-] | 3.6 µg/mL (≈ 13 µM) | 0.39 µg/mL (≈ 1.41 µM) | 9.2 | 90% | 
8 | COc1ccc2c(c1)[n+]([O-])c(C#N)c(-c1ccc(C)cc1)[n+]2[O-] | 3.8 µg/mL (≈ 12.4 µM) | 1.56 µg/mL (≈ 5.08 µM) | 2.4 | 90% | 
9 | Cc1ccc(-c2c(C#N)[n+]([O-])c3cc(F)ccc3[n+]2[O-])cc1 | 14.6 µg/mL (≈ 49.6 µM) | < 0.2 µg/mL | >73.19 | 90% | 
10 | Cc1ccc(-c2c(C#N)[n+]([O-])c3cc(C)c(C)cc3[n+]2[O-])cc1 | > 62.5 µg/mL | 1.56 µg/mL (≈ 5.11 µM) | >40 | 90% | 
11 | Cc1ccc2c(c1)[n+]([O-])c(C#N)c(-c1ccc(OC(F)(F)F)cc1)[n+]2[O-] |  | < 0.2 µg/mL |  | 90% | 
12 | N#Cc1c(-c2ccc(OC(F)(F)F)cc2)[n+]([O-])c2ccc(C(F)(F)F)cc2[n+]1[O-] |  | < 0.2 µg/mL |  | 90% | 
13 | N#Cc1c(-c2ccc(F)cc2)[n+]([O-])c2ccc(C(F)(F)F)cc2[n+]1[O-] | 0.99 µg/mL (≈ 2.83 µM) | < 0.2 µg/mL | >4.94 | 90% | 
14 | Cc1ccc(-c2c(C#N)[n+]([O-])c3cc(C)ccc3[n+]2[O-])cc1 |  | 0.78 µg/mL (≈ 2.68 µM) |  | 90% | ND(Insoluble)
15 | COc1ccc(-c2c(C#N)[n+]([O-])c3cc(Cl)c(Cl)cc3[n+]2[O-])cc1 |  | < 0.2 µg/mL |  | 90% | 
16 | CCOC(=O)c1c(-c2ccccc2)[n+]([O-])c2ccc(Cl)cc2[n+]1[O-] | 3.33 µg/mL (≈ 9.66 µM) | 1.56 µg/mL (≈ 4.52 µM) | 2.13 | 90% | 
17 | N#Cc1c(-c2ccc(F)cc2)[n+]([O-])c2ccc(Cl)cc2[n+]1[O-] | 51.7 µg/mL (≈ 164 µM) | < 0.2 µg/mL | >258.67 | 90% | 
18 | COc1ccc(-c2c(C#N)[n+]([O-])c3cc(F)ccc3[n+]2[O-])cc1 | 13 µg/mL (≈ 41.9 µM) | < 0.2 µg/mL | 65.15 | 90% | 
19 | CCOC(=O)c1c(-c2ccccc2)[n+]([O-])c2cc(C)c(C)cc2[n+]1[O-] | > 10 µg/mL | 6.25 µg/mL (≈ 18.5 µM) | >1.6 | 90% | 

Row | SMILES | IC50 (Vero; [4]) | MIC [1] | Ratio [2] | inhibition at 6.25 µg/mL [3] | IC50 (Vero; vero)
20 | N#Cc1c(-c2ccc(Cl)cc2)[n+]([O-])c2ccc(Cl)cc2[n+]1[O-] |  | 0.39 µg/mL (≈ 1.17 µM) |  | 90% | ND(Insoluble)
21 | N#Cc1c(-c2ccc(OC(F)(F)F)cc2)[n+]([O-])c2ccc(Cl)cc2[n+]1[O-] |  | < 0.2 µg/mL |  | 90% | 
22 | CCOC(=O)c1c(-c2ccc(Br)cc2)[n+]([O-])c2ccccc2[n+]1[O-] | 6.12 µg/mL (≈ 15.7 µM) | 0.39 µg/mL (≈ 1 µM) | 15.69 | 90% | 
23 | N#Cc1c(-c2ccc(Cl)cc2)[n+]([O-])c2ccc(C(F)(F)F)cc2[n+]1[O-] | 1.34 µg/mL (≈ 3.66 µM) | < 0.2 µg/mL | >6.68 | 90% | 
24 | Cc1ccc(-c2c(C#N)[n+]([O-])c3cc(C(F)(F)F)ccc3[n+]2[O-])cc1 | 0.28 µg/mL (≈ 0.811 µM) | < 0.2 µg/mL | >1.42 | 90% | 
25 | COC(=O)c1ccc(-c2c(C#N)[n+]([O-])c3cc(C(F)(F)F)ccc3[n+]2[O-])cc1 | 1.93 µg/mL (≈ 4.96 µM) | < 0.2 µg/mL | >9.64 | 90% | 
26 | COC(=O)c1ccc(-c2c(C#N)[n+]([O-])c3cc(C)ccc3[n+]2[O-])cc1 | 3.2 µg/mL (≈ 9.54 µM) | 0.39 µg/mL (≈ 1.16 µM) | 8.2 | 90% | 
27 | COC(=O)c1ccc(-c2c(C#N)[n+]([O-])c3ccccc3[n+]2[O-])cc1 | 4.8 µg/mL (≈ 14.9 µM) | 0.78 µg/mL (≈ 2.43 µM) | 6.2 | 90% | 
28 | N#Cc1c(-c2ccccc2)[n+]([O-])c2ccc(C(F)(F)F)cc2[n+]1[O-] | 3.78 µg/mL (≈ 11.4 µM) | < 0.2 µg/mL | >18.89 | 90% | 
29 | N#Cc1c(-c2ccc(OC(F)(F)F)cc2)[n+]([O-])c2ccccc2[n+]1[O-] |  | < 0.2 µg/mL |  | 90% | 
30 | CCOC(=O)c1c(-c2ccccc2)[n+]([O-])c2ccccc2[n+]1[O-] | 24.8 µg/mL (≈ 79.8 µM) | 1.56 µg/mL (≈ 5.03 µM) | 15.87 | 90% | 
31 | Cc1cc2c(cc1C)[n+]([O-])c(N1CCN(c3ccc([N+](=O)[O-])cc3)CC1)c(C#N)[n+]2[O-] |  | < 0.2 µg/mL | >125 |  | 
32 | N#Cc1c(-c2ccc(Cl)cc2)[n+]([O-])c2ccc(F)cc2[n+]1[O-] | 47.9 µg/mL (≈ 152 µM) | < 0.2 µg/mL | >239.69 | 90% | 
33 | N#Cc1c(-c2ccccc2)[n+]([O-])c2ccc(Cl)cc2[n+]1[O-] | 0.36 µg/mL (≈ 1.21 µM) | 0.39 µg/mL (≈ 1.31 µM) | 0.92 | 90% | 
34 | CCOC(=O)c1c(-c2ccc(F)cc2)[n+]([O-])c2ccccc2[n+]1[O-] | 8.9 µg/mL (≈ 27.1 µM) | 0.39 µg/mL (≈ 1.19 µM) | 22.82 | 90% | 
35 | Cc1cc2c(cc1C)[n+]([O-])c(-c1ccccc1)c(C#N)[n+]2[O-] | 3.9 µg/mL (≈ 13.4 µM) | 0.39 µg/mL (≈ 1.34 µM) | 10 | 90% | 
36 | COC(=O)c1ccc(-c2c(C#N)[n+]([O-])c3cc(OC)ccc3[n+]2[O-])cc1 | 3.9 µg/mL (≈ 11.1 µM) | 3.13 µg/mL (≈ 8.91 µM) | 1.2 | 90% | 
37 | CO[C@H]1/C=C/O[C@@]2(C)Oc3c(C)c(O)c4c(O)c(c(/C=N/N5CCN(C)CC5)c(O)c4c3C2=O)NC(=O)/C(C)=C\C=C\[C@H](C)[C@H](O)[C@@H](C)[C@@H](O)[C@@H](C)[C@H](OC(C)=O)[C@@H]1C [RIFAMPIN] | > 100 µg/mL | 0.125 µg/mL (≈ 0.152 µM) | >800 | 90% | 
38 | Cc1ccc(-c2c(C#N)[n+]([O-])c3cc(Cl)c(Cl)cc3[n+]2[O-])cc1 | 0.72 µg/mL (≈ 2.08 µM) | 3.13 µg/mL (≈ 9.04 µM) | 0.23 | 90% | 

Row | SMILES | IC50 (Vero; [4]) | MIC [1] | Ratio [2] | inhibition at 6.25 µg/mL [3] | IC50 (Vero; vero)
39 | N#Cc1c(-c2ccc(F)cc2)[n+]([O-])c2cc(Cl)c(Cl)cc2[n+]1[O-] | 7.41 µg/mL (≈ 21.2 µM) | < 0.2 µg/mL | >37.06 | 90% | 
40 | Cc1ccc2c(c1)[n+]([O-])c(C#N)c(-c1ccc(Cl)cc1)[n+]2[O-] | 0.45 µg/mL (≈ 1.44 µM) | 0.39 µg/mL (≈ 1.25 µM) | 1.15 | 90% | 
41 | Cc1cc2c(cc1C)[n+]([O-])c(-c1ccc(OC(F)(F)F)cc1)c(C#N)[n+]2[O-] |  | 0.42 µg/mL (≈ 1.12 µM) |  | 90% | 
42 | COc1ccc(-c2c(C#N)[n+]([O-])c3cc(Cl)ccc3[n+]2[O-])cc1 |  | < 0.2 µg/mL |  | 90% | 
43 | CCOC(=O)c1c(-c2ccc(C(F)(F)F)cc2)[n+]([O-])c2ccccc2[n+]1[O-] | 2.24 µg/mL (≈ 5.92 µM) | 1.56 µg/mL (≈ 4.12 µM) | 1.44 | 90% | 
44 | Cc1c(C(=O)OCc2ccccc2)[n+]([O-])c2cc(Cl)ccc2[n+]1[O-] |  | 0.1 µg/mL (≈ 0.29 µM) | 470 |  | 
45 | COC(=O)c1ccc(-c2c(C#N)[n+]([O-])c3cc(C)c(C)cc3[n+]2[O-])cc1 | 9.66 µg/mL (≈ 27.7 µM) | 6.25 µg/mL (≈ 17.9 µM) | 1.5 | 90% | 
46 | N#Cc1c(-c2ccc(Cl)cc2)[n+]([O-])c2cc(Cl)c(Cl)cc2[n+]1[O-] |  | < 0.2 µg/mL |  | 90% | ND(Insoluble)
47 | COc1ccc(-c2c(C#N)[n+]([O-])c3cc(C)ccc3[n+]2[O-])cc1 |  | < 0.2 µg/mL |  | 90% | 
48 | COc1ccc2c(c1)[n+]([O-])c(C#N)c(-c1ccccc1)[n+]2[O-] |  | 3.13 µg/mL (≈ 10.7 µM) |  | 90% | ND(Insoluble)
49 | CC(=O)c1c(C)[n+]([O-])c2ccc(Cl)cc2[n+]1[O-] |  | 0.78 µg/mL (≈ 3.09 µM) | 20 |  | 
50 | COc1ccc(-c2c(C#N)[n+]([O-])c3cc(OC)ccc3[n+]2[O-])cc1 |  | < 0.2 µg/mL |  | 90% | 
51 | COc1ccc2c(c1)[n+]([O-])c(C#N)c(-c1ccc(OC(F)(F)F)cc1)[n+]2[O-] |  | < 0.2 µg/mL |  | 90% | 
52 | COc1ccc(-c2c(C#N)[n+]([O-])c3ccccc3[n+]2[O-])cc1 |  | < 0.2 µg/mL |  | 90% | 
53 | N#Cc1c(-c2ccc(OC(F)(F)F)cc2)[n+]([O-])c2cc(Cl)c(Cl)cc2[n+]1[O-] |  | < 0.2 µg/mL |  | 90% | 
54 | COc1ccc(-c2c(C#N)[n+]([O-])c3cc(C)c(C)cc3[n+]2[O-])cc1 |  | < 0.2 µg/mL |  | 90% | 
55 | N#Cc1c(-c2ccccc2)[n+]([O-])c2cc(Cl)c(Cl)cc2[n+]1[O-] |  | 0.2 µg/mL (≈ 0.602 µM) |  | 90% | ND(Insoluble)
56 | COC(=O)c1ccc(-c2c(C#N)[n+]([O-])c3cc(Cl)c(Cl)cc3[n+]2[O-])cc1 |  | > 6.25 µg/mL |  |  | 
57 | CCOC(=O)c1c(C)[n+]([O-])c2ccc(Cl)cc2[n+]1[O-] |  | 0.2 µg/mL (≈ 0.708 µM) | >50 |  | 
